Reference: patent US20100263095A1, “METHOD FOR GROWING SUGARCANE” (SYNGENTA CROP PROTECTION, INC., priority 2007, published 2010)

What was measured:
[1] = system: sugarcane Variety RB 86-7515; experiment: Greenhouse pot test: effect of formulated thiamethoxam on vigour; assay type: in vivo, sugar cane; conditions: result in words
Description: This trial was conducted on Variety RB 86-7515.

[2] = system: sugar cane Variety RB 86-7515; experiment: Greenhouse pot test: effect of formulated abamectin on vigour; assay type: in vivo; conditions: Carretel with one bud; 100 g ai/ha; 42 days after planting
Description: Greenhouse test with sugarcane buds growing in pots were conducted to study the effect of formulated abamectin regarding “vigour”, tillers, plant height, leaf width and culm diameter on sugar cane Variety RB 86-7515.
Twenty 1 L pots were filled with 16 L of clay soil, 1.6 L of sand and 8 g of nitrogen, 28 g of phosphorus (P2O5) and 16 g of potassium (K2O). Six carretels of 4 cm length with only one bud were planted in each pot (treatments 1, 2, 4 and 5). Two stalks with three buds were planted in each control pot (treatments 3 and 6) to simulate conventional planting. A layer of 3 cm of soil was used to cover the carretels. The carretels of treatments 1, 2 were treated with 200 ml/ha of abamectin, by dipping the carretels in the slurry for 3 min, based on the uptake capacity of carretels. The stalks were treated simulating a furrow application at 100 L·ha^−1 of slurry. Experimental design adopted was randomized complete block with four replications. The pots were maintained with adequate moisture during the test. Evaluations of: plant height, leaf width, culm diameter and number of tillers were done at 20, 30 and 42 days after planting.

[3] = system: sugar cane Variety RB 86-7515; experiment: Greenhouse pot test: effect of formulated fipronil on vigour; assay type: in vivo; conditions: result in words
Description: Greenhouse test with sugarcane buds growing in pots were conducted to study the effect of fipronil equivalent to an application rate of 200 g. ha^−1 on “vigour”, evaluating tillers, plant height, leaf width and culm diameter on sugar cane Variety RB 86-7515.
Twenty 1 L pots were filled with 16 L of clay soil, 1.6 L of sand and 8 g of nitrogen, 28 g of phosphorus (P2O5) and 16 g of potassium (K2O). Six carretels of 4 cm length with one bud were planted in each pot (treatments 1, 2, 4 and 5). Two stalks with three buds were planted in each control pot (treatments 3 and 6) to simulate conventional planting. A layer of 3 cm of soil was used to cover the carretels. The carretels of treatments 1 and 2 were treated with 200 g ai·ha^−1 of fipronil, by dipping the carretels in the slurry for 3 min, based on the uptake capacity of carretels. The stalks were treated simulating a furrow application at 100 L·ha^−1 of slurry. Experimental design adopted was randomized complete block with four replications. The pots were maintained with adequate moisture during the test. Evaluations of: plant height, leaf width, culm diameter and number of tillers were done at 20, 30 and 42 days after planting.

`CN1COCN(Cc2cnc(Cl)s2)/C1=N\[N+](=O)[O-]` [Thiamethoxam, thiamethoxam] was tested, and the “number of tillers in comparison with the corresponding controls” value ([1]; carretels) was “increased number of tillers”, the “plant height in comparison with the corresponding controls” value ([1]; carretels) was “reduced plant height” and the ““quality” compared with the other treatments” value ([1]; overall assessment, not apparent from the listed parameters) was “increase in “quality” greater than the other treatments”.
For abamectin, the Tillers [2] was 14 number.
`N#Cc1nn(-c2c(Cl)cc(C(F)(F)F)cc2Cl)c(N)c1[S+]([O-])C(F)(F)F` (centres unmarked) [Fipronil, fipronil] was tested, and the “height of the resultant plants in comparison with the control” value [3] was “decreased the height”.
